Patent US20240190890A1, “MK2 INHIBITORS AND USES THEREOF” (Bristol-Myers Squibb Company, priority 2022, published 2024)

Molecular target: p38a activated, mitogen-activated protein kinase-activated protein kinase 2 (MAPKAP-K2 or MK2) enzyme (Homo sapiens (Human), UniProt P49137)
Test: MK2 Omnia continuous-read kinase assay for compound potency
Format: biochemical
Details: [MK-2]=0.4 nM, [ATP]=10 μM, [ST3-Sox]=10 μM; room temperature
Summary of the method: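 p38a-activated MK2 (0.4 nM) with 10 μM ATP (apparent Km) and 10 μM S/T3-Sox peptide in Tris pH 7.5 buffer with MgCl2, EGTA and DTT. Fluorescence (ex360/em485) read continuously for 120 min at room temperature. IC50 from initial linear slopes; apparent kinact/KI from kobs of exponential progress-curve fits.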

p38a activated, mitogen-activated protein kinase-activated protein kinase 2 (MAPKAP-K2 or MK2) enzyme, sequence (P49137 whole entry): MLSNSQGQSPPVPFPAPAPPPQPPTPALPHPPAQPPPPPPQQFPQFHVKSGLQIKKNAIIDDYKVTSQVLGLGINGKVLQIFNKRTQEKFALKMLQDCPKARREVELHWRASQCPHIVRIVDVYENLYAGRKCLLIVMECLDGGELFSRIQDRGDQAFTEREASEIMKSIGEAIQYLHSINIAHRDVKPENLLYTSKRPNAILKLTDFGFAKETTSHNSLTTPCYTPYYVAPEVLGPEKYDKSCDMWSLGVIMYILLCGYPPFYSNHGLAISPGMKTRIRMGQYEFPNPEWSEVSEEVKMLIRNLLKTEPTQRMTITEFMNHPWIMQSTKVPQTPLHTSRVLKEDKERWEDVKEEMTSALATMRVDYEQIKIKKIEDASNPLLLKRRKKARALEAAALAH

Row | Structure (SMILES) | IC50
1 | C=Cc1cc(-c2ccc3c(ccc4sc5c(c43)NC[C@@H](CF)NC5=O)n2)c(C)cn1 [Example I-254, (S)-10-(fluoromethyl)-3-(5-methyl-2-vinylpyridin-4-yl)-9,10,11,12-tetrahydro-8H-[1,4]diazepino[5′,6′:4,5]thieno[3,2-f]quinolin-8-one] | 27 nM
2 | C#Cc1cc(-c2ccc3c(ccc4sc5c(c43)NC[C@@H](C)NC5=O)n2)cc(N2CC(F)(F)C2)n1 [Example I-183, (R)-3-(2-(3,3-difluoroazetidin-1-yl)-6-ethynylpyridin-4-yl)-10-methyl-9,10,11,12-tetrahydro-8H-[1,4]diazepino[5′,6′:4,5]thieno[3,2-f]quinolin-8-one] | 839 nM
3 | C#Cc1cc(-c2ccc3c(ccc4sc5c(c43)NC[C@@H](C)NC5=O)n2)cc(CN2CCC(OC)CC2)n1 [Example I-122, (R)-3-(2-ethynyl-6-((4-methoxypiperidin-1-yl)methyl)pyridin-4-yl)-10-methyl-9,10,11,12-tetrahydro-8H-[1,4]diazepino[5′,6′:4,5]thieno[3,2-f]quinolin-8-one] | 40 nM
4 | C#Cc1cc(-c2ccc3c(ccc4sc5c(c43)NC[C@@H](C)NC5=O)n2)nc(N2CCN(C)CC2)n1 [Example I-59, (R)-3-(6-ethynyl-2-(4-methylpiperazin-1-yl)pyrimidin-4-yl)-10-methyl-9,10,11,12-tetrahydro-8H-[1,4]diazepino[5′,6′:4,5]thieno[3,2-f]quinolin-8-one] | 3 nM
5 | C[C@@H]1CNc2c(sc3ccc4nc(-c5nc(Cl)nc6c5CN(C)CC6)ccc4c23)C(=O)N1 [Example I-192, (R)-3-(2-chloro-6-methyl-5,6,7,8-tetrahydropyrido[4,3-d]pyrimidin-4-yl)-10-methyl-9,10,11,12-tetrahydro-8H-[1,4]diazepino[5′,6′:4,5]thieno[3,2-f]quinolin-8-one] | 257 nM
6 | C=Cc1cc(-c2ccc3c(ccc4sc5c(c43)NC[C@@H](C)NC5=O)n2)cc(CN2CCC(OC)CC2)n1 [Example I-121, (R)-3-(2-((4-methoxypiperidin-1-yl)methyl)-6-vinylpyridin-4-yl)-10-methyl-9,10,11,12-tetrahydro-8H-[1,4]diazepino[5′,6′:4,5]thieno[3,2-f]quinolin-8-one] | 11 nM
7 | C=C(C)c1cc(-c2ccc3c(ccc4sc5c(c43)NC[C@@H](C)NC5=O)n2)nc(COCC)n1 [Example I-37, (R)-3-(2-(ethoxymethyl)-6-(prop-1-en-2-yl)pyrimidin-4-yl)-10-methyl-9,10,11,12-tetrahydro-8H-[1,4]diazepino[5′,6′:4,5]thieno[3,2-f]quinolin-8-one] | 10 nM

The remaining lines, values ahead:

Row | IC50 | Structure (SMILES)
8 | 11 nM | C=Cc1cc(-c2ccc3c(ccc4sc5c(c43)NC[C@@H](C)NC5=O)n2)cc(N2CCC2)n1 [Example I-179, (R)-3-(2-(azetidin-1-yl)-6-vinylpyridin-4-yl)-10-methyl-9,10,11,12-tetrahydro-8H-[1,4]diazepino[5′,6′:4,5]thieno[3,2-f]quinolin-8-one]
9 | 2 nM | C#Cc1cc(-c2ccc3c(ccc4sc5c(c43)NC[C@@H](C)NC5=O)n2)c(C#N)cn1 [Example I-162, (R)-6-ethynyl-4-(10-methyl-8-oxo-9,10,11,12-tetrahydro-8H-[1,4]diazepino[5′,6′:4,5]thieno[3,2-f]quinolin-3-yl)nicotinonitrile]
10 | 38 nM | C=Cc1cc(-c2ccc3c(ccc4sc5c(c43)NC[C@@H](C)NC5=O)n2)cc(N2CCC(OC)CC2)n1 [Example I-158, (R)-3-(2-(4-methoxypiperidin-1-yl)-6-vinylpyridin-4-yl)-10-methyl-9,10,11,12-tetrahydro-8H-[1,4]diazepino[5′,6′:4,5]thieno[3,2-f]quinolin-8-one]
11 | 26 nM | C=Cc1ncn(-c2ccc3c(ccc4sc5c(c43)NC[C@@H](C)NC5=O)n2)n1 [Example I-207, (R)-10-methyl-3-(3-vinyl-1H-1,2,4-triazol-1-yl)-9,10,11,12-tetrahydro-8H-[1,4]diazepino[5′,6′:4,5]thieno[3,2-f]quinolin-8-one]
12 | 6 nM | COCc1nc(Cl)cc(-c2ccc3c(ccc4sc5c(c43)NC[C@@H](C)NC5=O)n2)n1 [Example I-7, (R)-3-(6-chloro-2-(methoxymethyl)pyrimidin-4-yl)-10-methyl-9,10,11,12-tetrahydro-8H-[1,4]diazepino[5′,6′:4,5]thieno[3,2-f]quinolin-8-one]
13 | 161 nM | C=Cc1cc(-c2ccc3c(ccc4sc5c(c43)NC[C@@H](C)NC5=O)n2)cc(N2CCC(F)CC2)n1 [Example I-239, (R)-3-(2-(4-fluoropiperidin-1-yl)-6-vinylpyridin-4-yl)-10-methyl-9,10,11,12-tetrahydro-8H-[1,4]diazepino[5′,6′:4,5]thieno[3,2-f]quinolin-8-one]
14 | 912 nM | Cc1cnc(Cl)nc1-c1ccc2c(ccc3sc4c(c32)NC[C@@H](C)NC4=O)n1 [Example I-6, (R)-3-(2-chloro-5-methylpyrimidin-4-yl)-10-methyl-9,10,11,12-tetrahydro-8H-[1,4]diazepino[5′,6′:4,5]thieno[3,2-f]quinolin-8-one]
15 | 371 nM | C/C=C/c1ncc(COCC)c(-c2ccc3c(ccc4sc5c(c43)NC[C@@H](C)NC5=O)n2)n1 [Example I-48, (R,E)-3-(5-(ethoxymethyl)-2-(prop-1-en-1-yl)pyrimidin-4-yl)-10-methyl-9,10,11,12-tetrahydro-8H-[1,4]diazepino[5′,6′:4,5]thieno[3,2-f]quinolin-8-one]
16 | 28 nM | C=Cc1cc(-c2ccc3c(ccc4sc5c(c43)NC[C@@H](C)NC5=O)n2)c(OCCN2CCCC2)nn1 [Example I-118, (R)-10-methyl-3-(3-(2-(pyrrolidin-1-yl)ethoxy)-6-vinylpyridazin-4-yl)-9,10,11,12-tetrahydro-8H-[1,4]diazepino[5′,6′:4,5]thieno[3,2-f]quinolin-8-one]
17 | 24 nM | C=Cc1ncc(COC2COC2)c(-c2ccc3c(ccc4sc5c(c43)NC[C@@H](C)NC5=O)n2)n1 [Example I-21, (R)-10-methyl-3-(5-((oxetan-3-yloxy)methyl)-2-vinylpyrimidin-4-yl)-9,10,11,12-tetrahydro-8H-[1,4]diazepino[5′,6′:4,5]thieno[3,2-f]quinolin-8-one]
